Laboratory results from ChEMBL document CHEMBL5537115, “New broad-spectrum and potent antibacterial agents with dual-targeting mechanism: Promoting FtsZ polymerization and disrupting bacterial membranes” (Eur J Med Chem, 2024).
Activity calls are given as the source filed them. The rule behind the calls is not given here.

Columns and labels:
Staphylococcus aureus [1] = test: Antibacterial activity against methicillin-resistant Staphylococcus aureus ATCC43300 assessed as bacterial growth inhibition incubated for 20 hrs by CLSI based broth microdilution method; type: functional
Escherichia coli [2] = test: Antibacterial activity against wild-type Escherichia coli BW25113 assessed as bacterial growth inhibition incubated for 20 hrs by CLSI based broth microdilution method; type: functional
Staphylococcus aureus [3] = test: Induction of membrane potential depolarization in Staphylococcus aureus ATCC25923 measured after 20 mins by diSC35 dye based spectroscopy; type: functional, organism-based
Bacillus subtilis [4] = test: Induction of morphological change in Bacillus subtilis ATCC9372 assessed as increase in cell length at 0.5 times MIC by phase contrast microscopy; type: functional, organism-based
[5] = system: Staphylococcus epidermidis; test: Antibacterial activity against penicillin-resistant Staphylococcus epidermidis clinical isolate assessed as bacterial growth inhibition incubated for 20 hrs by CLSI based broth microdilution method; type: functional
Escherichia coli [6] = test: Disruption of inner membrane in Escherichia coli ATCC25922 measured after 12 mins by PI staining based analysis; type: functional, organism-based
[7] = target: T1, Cell division protein FtsZ (Bacillus subtilis) (UniProt A5Z1V5); test: Induction of FtsZ polymerization in Bacillus subtilis at 2.5 to 10 ug/ml preincubated with compound followed by GTP addition by absorbance based assay; conditions: dose 2.5-10 µg/ml, time 40.0 min, TDE = time-dependent effect
T1 sequence (whole entry): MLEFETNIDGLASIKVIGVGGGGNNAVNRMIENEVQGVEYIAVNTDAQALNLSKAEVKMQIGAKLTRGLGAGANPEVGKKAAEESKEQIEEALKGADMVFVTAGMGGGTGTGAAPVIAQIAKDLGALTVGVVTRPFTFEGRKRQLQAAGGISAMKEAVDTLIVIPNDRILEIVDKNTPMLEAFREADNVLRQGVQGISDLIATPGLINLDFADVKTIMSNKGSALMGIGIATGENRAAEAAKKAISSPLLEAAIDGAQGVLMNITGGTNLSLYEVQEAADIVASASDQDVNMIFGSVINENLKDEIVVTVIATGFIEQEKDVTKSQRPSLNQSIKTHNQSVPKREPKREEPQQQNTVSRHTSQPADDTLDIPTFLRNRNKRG

Enterococcus faecalis [8] = test: Antibacterial activity against vancomycin-susceptible Enterococcus faecalis ATCC29212 assessed as bacterial growth inhibition incubated for 20 hrs by CLSI based broth microdilution method; type: functional
Escherichia coli [9] = test: Disruption of outer membrane in Escherichia coli ATCC25922 at 16 ug/ml measured after 10 mins by NPN dye based analysis; type: functional, organism-based; conditions: dose 16.0 µg/ml
Bacillus pumilus = test: Antibacterial activity against penicillin-susceptible Bacillus pumilus CMCC63202 assessed as bacterial growth inhibition incubated for 20 hrs by CLSI based broth microdilution method; type: functional
Streptococcus pyogenes = test: Antibacterial activity against erythromycin-resistant Streptococcus pyogenes 2 clinical isolate assessed as bacterial growth inhibition incubated for 20 hrs by CLSI based broth microdilution method; type: functional
Klebsiella pneumoniae = test: Antibacterial activity against Klebsiella pneumoniae ATCC BAA-1902 assessed as bacterial growth inhibition incubated for 20 hrs by CLSI based broth microdilution method; type: functional
[10] = target: T1, Cell division protein FtsZ (Bacillus subtilis); test: Induction of FtsZ polymerization in Bacillus subtilis assessed as bundling of FtsZ protofilaments at 10 ug/ml preincubated for 15 mins followed by GTP addition measured after 10 mins by TEM analysis; conditions: dose 10.0 µg/ml, time 25.0 min
Bacillus subtilis [11] = test: Antibacterial activity against penicillin-susceptible Bacillus subtilis ATCC9372 incubated for 18 to 24 hrs; type: functional; conditions: time 18-24 hrs
Staphylococcus aureus [12] = test: Antibacterial activity against penicillin-resistant Staphylococcus aureus ATCC31007 assessed as bacterial growth inhibition incubated for 20 hrs by CLSI based broth microdilution method; type: functional
Bacillus subtilis [13] = test: Selectivity ratio of MBC for penicillin-susceptible Bacillus subtilis ATCC9372 to MIC for penicillin-susceptible Bacillus subtilis ATCC9372; type: functional
Enterococcus faecalis [14] = test: Antibacterial activity against vancomycin-resistant Enterococcus faecalis ATCC51299 assessed as bacterial growth inhibition incubated for 20 hrs by CLSI based broth microdilution method; type: functional
Escherichia coli [15] = test: Disruption of inner membrane in Escherichia coli ATCC25922 by PI staining based analysis; type: functional, organism-based; conditions: time 12.0 min, TDE = time-dependent effect
Staphylococcus aureus [16] = test: Inhibition of biofilm formation of Staphylococcus aureus ATCC25923 incubated for 20 hrs by crystal violet staining based analysis; type: functional, organism-based
Enterococcus faecium [17] = test: Antibacterial activity against vancomycin-susceptible Enterococcus faecium ATCC19434 assessed as bacterial growth inhibition incubated for 20 hrs by CLSI based broth microdilution method; type: functional
Staphylococcus aureus [18] = test: Induction of morphological change in Staphylococcus aureus ATCC25923 assessed as loss of bacterial membrane integrity at 16 times MIC incubated for 2 hrs by TEM analysis; type: functional, organism-based
Staphylococcus aureus [19] = test: Antibacterial activity against Staphylococcus aureus ATCC25923 infected in Kunming mouse model assessed as bacterial growth reduction at 5 to 25 mg/kg, ip; type: functional, organism-based; conditions: dose 5-25 mg/kg
Enterococcus faecium [20] = test: Antibacterial activity against vancomycin-resistant Enterococcus faecium ATCC51559 assessed as bacterial growth inhibition incubated for 20 hrs by CLSI based broth microdilution method; type: functional
Acinetobacter baumannii [21] = test: Antibacterial activity against Acinetobacter baumannii ATCC19606 assessed as bacterial growth inhibition incubated for 20 hrs by CLSI based broth microdilution method; type: functional
[22] = target: T1, Cell division protein FtsZ (Bacillus subtilis); test: Induction of FtsZ polymerization in Bacillus subtilis preincubated for 10 mins followed by GTP addition measured upto 30 mins by absorbance based assay; conditions: dose 2.5-10 µg/ml, time 40.0 min
Acinetobacter baumannii [23] = test: Selectivity ratio of MBC for Acinetobacter baumannii ATCC19606 to MIC for Acinetobacter baumannii ATCC19606; type: functional
Staphylococcus aureus [24] = test: Antibacterial activity against Staphylococcus aureus clinical isolate incubated for 18 to 24 hrs; type: functional; conditions: time 18-24 hrs
Staphylococcus aureus [25] = test: Disruption of inner membrane in Staphylococcus aureus ATCC25923 measured after 12 mins by PI staining based analysis; type: functional, organism-based
Staphylococcus aureus [26] = test: Antibacterial activity against erythromycin-susceptible Staphylococcus aureus ATCC25923 incubated for 18 to 24 hrs; type: functional; conditions: time 18-24 hrs
Staphylococcus aureus [27] = test: Selectivity ratio of MBC for Staphylococcus aureus clinical isolate to MIC for Staphylococcus aureus clinical isolate; type: functional
Staphylococcus aureus [28] = test: Antibacterial activity against erythromycin-susceptible Staphylococcus aureus ATCC25923 assessed as bacterial growth inhibition incubated for 20 hrs by CLSI based broth microdilution method; type: functional
Bacillus subtilis [29] = test: Antibacterial activity against penicillin-susceptible Bacillus subtilis ATCC9372 assessed as bacterial growth inhibition incubated for 20 hrs by CLSI based broth microdilution method; type: functional
Staphylococcus aureus [30] = test: Bactericidal activity against Staphylococcus aureus ATCC25923 assessed as log reduction in bacterial growth at 0.125 ug/ml measured for 6 hrs by time-kill assay; type: functional; conditions: dose 0.125 µg/ml
Staphylococcus aureus [31] = test: Bactericidal activity against Staphylococcus aureus ATCC25923 assessed as log reduction in bacterial growth at 0.25 to 0.5 ug/ml measured for 9 to 12 hrs by time-kill assay; type: functional; conditions: dose 0.25-0.5 µg/ml; time 9-12 hrs
Staphylococcus aureus [32] = test: Selectivity ratio of MBC for erythromycin-susceptible Staphylococcus aureus ATCC25923 to MIC for erythromycin-susceptible Staphylococcus aureus ATCC25923; type: functional

C[n+]1cc(-c2ccccc2)c(/C=C/c2ccc(C(C)(C)C)cc2)cc1-c1ccc(C(C)(C)C)cc1.[I-]
MIC (Staphylococcus aureus [1]): 0.125 µg/mL | MIC (Escherichia coli [2]): 2 µg/mL | Activity (Staphylococcus aureus [3]): Dose-Dependent Effect | Activity (Bacillus subtilis [4]): Active | MIC [5]: 0.5 µg/mL | Activity (Escherichia coli [6]): Dose-Dependent Effect | Activity [7]: Tde | MIC (Enterococcus faecalis [8]): 0.25 µg/mL | Activity (Escherichia coli [9]): Active | MIC (Bacillus pumilus): 0.062 µg/mL | MIC (Streptococcus pyogenes): 2 µg/mL | MIC (Klebsiella pneumoniae): 4 µg/mL | Activity [10]: Active | MBC (Bacillus subtilis [11]): 0.25 µg/mL | MIC (Staphylococcus aureus [12]): 1 µg/mL | Ratio (Bacillus subtilis [13]): 2 | MIC (Enterococcus faecalis [14]): 0.5 µg/mL | Activity (Escherichia coli [15]): Tde | inhibition (Staphylococcus aureus [16]): Dose-Dependent Effect | MIC (Enterococcus faecium [17]): 0.125 µg/mL | Activity (Staphylococcus aureus [18]): Active | Activity (Staphylococcus aureus [19]): Active | MIC (Enterococcus faecium [20]): 0.5 µg/mL | MIC (Acinetobacter baumannii [21]): 0.5 µg/mL | Activity [22]: Dose-Dependent Effect | Ratio (Acinetobacter baumannii [23]): 2 | MBC (Staphylococcus aureus [24]): 0.125 µg/mL | Activity (Staphylococcus aureus [25]): Dose-Dependent Effect | MBC (Staphylococcus aureus [26]): 0.25 µg/mL | Ratio (Staphylococcus aureus [27]): 2 | MIC (Staphylococcus aureus [28]): 0.062 µg/mL | MIC (Bacillus subtilis [29]): 0.125 µg/mL | Activity (Staphylococcus aureus [30]): 3.059 log10CFU/ml | Activity (Staphylococcus aureus [31]): 0 log10CFU/ml | Ratio (Staphylococcus aureus [32]): 4
